Experiments:
Assay in all cases: relative viability (nuclei count vs DMSO), 5 days (fraction); higher = more cells survive
[1] = compound: CC(C)(C)c1cc(NC(=O)Nc2ccc(-c3cn4c(n3)sc3cc(OCCN5CCOCC5)ccc34)cc2)no1 [Quizartinib] + C[C@]1(O)C[C@@H](c2nc(-c3ccc4ccc(-c5ccccc5)nc4c3)c3c(N)nccn32)C1 [Linsitinib] (partner 1 µM)
Procedure, shortened: (§1)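 A single step with final 0.05% Triton X-100, 1% formaldehyde and 1 ug/ml Hoechst fixed the cells and stained nuclei 5 days after treatment. Lung cancer cell lines in 1536-well plates had been treated by pin tool the day after seeding with one drug alone or a fixed anchor-drug dose plus five library-drug doses (not always all listed) in √10 steps, and nuclei were counted on 4× images. Relative viability is the ratio of nuclei in treated wells to nuclei in vehicle wells, taken as the median of duplicate plates.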

[2] = compound: CC(C)(C)c1cc(NC(=O)Nc2ccc(-c3cn4c(n3)sc3cc(OCCN5CCOCC5)ccc34)cc2)no1 [Quizartinib] + CC1(C)CCC(c2ccc(Cl)cc2)=C(CN2CCN(c3ccc(C(=O)NS(=O)(=O)c4ccc(N[C@H](CCN5CCOCC5)CSc5ccccc5)c(S(=O)(=O)C(F)(F)F)c4)cc3)CC2)C1 [Navitoclax] (partner 0.5 µM)
Procedure, shortened: as §1

[3] = compound: CC(C)(C)c1cc(NC(=O)Nc2ccc(-c3cn4c(n3)sc3cc(OCCN5CCOCC5)ccc34)cc2)no1 [Quizartinib] + CC(=O)Nc1cccc(-n2c(=O)n(C3CC3)c(=O)c3c(Nc4ccc(I)cc4F)n(C)c(=O)c(C)c32)c1 [Trametinib] (partner 0.02 µM)
Procedure, shortened: as §1

[4] = compound: CC(C)(C)c1cc(NC(=O)Nc2ccc(-c3cn4c(n3)sc3cc(OCCN5CCOCC5)ccc34)cc2)no1 [Quizartinib] + CC(=O)c1c(C)c2cnc(Nc3ccc(N4CCNCC4)cn3)nc2n(C2CCCC2)c1=O [Palbociclib] (partner 0.5 µM)
Procedure, shortened: as §1

Cell Line: EBC-1
- relative viability ([1]; first compound 0.001 µM): 0.801
- relative viability ([1]; first compound 0.003162 µM): 0.972
- relative viability ([1]; first compound 0.01 µM): 0.956
- relative viability ([1]; first compound 0.03162 µM): 0.989
- relative viability ([1]; first compound 0.1 µM): 0.948
- relative viability ([2]; first compound 0.001 µM): 0.411
- relative viability ([2]; first compound 0.003162 µM): 0.436
- relative viability ([2]; first compound 0.01 µM): 0.524
- relative viability ([2]; first compound 0.03162 µM): 0.479
- relative viability ([2]; first compound 0.1 µM): 0.527

Cell Line: EKVX
- relative viability ([3]; first compound 0.003162 µM): 0.327
- relative viability ([3]; first compound 0.01 µM): 0.331
- relative viability ([3]; first compound 0.03162 µM): 0.437
- relative viability ([3]; first compound 0.1 µM): 0.284
- relative viability ([1]; first compound 0.001 µM): 0.92
- relative viability ([1]; first compound 0.003162 µM): 1
- relative viability ([1]; first compound 0.01 µM): 1.02
- relative viability ([1]; first compound 0.03162 µM): 0.954
- relative viability ([1]; first compound 0.1 µM): 1.1
- relative viability ([4]; first compound 0.003162 µM): 0.354
- relative viability ([4]; first compound 0.01 µM): 0.397
- relative viability ([4]; first compound 0.03162 µM): 0.451
- relative viability ([4]; first compound 0.1 µM): 0.283
- relative viability ([2]; first compound 0.001 µM): 0.953
- relative viability ([2]; first compound 0.003162 µM): 0.88
- relative viability ([2]; first compound 0.01 µM): 0.901
- relative viability ([2]; first compound 0.03162 µM): 0.978
- relative viability ([2]; first compound 0.1 µM): 0.992

Cell Line: EMC-BAC-2
- relative viability ([3]; first compound 0.001 µM): 0.811
- relative viability ([3]; first compound 0.003162 µM): 0.899
- relative viability ([3]; first compound 0.01 µM): 0.865
- relative viability ([3]; first compound 0.1 µM): 0.857
- relative viability ([1]; first compound 0.001 µM): 0.712
- relative viability ([1]; first compound 0.003162 µM): 0.748
- relative viability ([1]; first compound 0.01 µM): 0.815
- relative viability ([1]; first compound 0.03162 µM): 0.789
- relative viability ([1]; first compound 0.1 µM): 0.838
- relative viability ([4]; first compound 0.001 µM): 0.456
- relative viability ([4]; first compound 0.003162 µM): 0.483
- relative viability ([4]; first compound 0.01 µM): 0.547
- relative viability ([4]; first compound 0.1 µM): 0.544
- relative viability ([2]; first compound 0.001 µM): 1.13
- relative viability ([2]; first compound 0.003162 µM): 1.14
- relative viability ([2]; first compound 0.01 µM): 1.31
- relative viability ([2]; first compound 0.03162 µM): 1.18
- relative viability ([2]; first compound 0.1 µM): 1.19

Cell Line: EPLC-272H
- relative viability ([3]; first compound 0.001 µM): 0.291
- relative viability ([3]; first compound 0.003162 µM): 0.254
- relative viability ([3]; first compound 0.01 µM): 0.241
- relative viability ([3]; first compound 0.03162 µM): 0.283
- relative viability ([3]; first compound 0.1 µM): 0.304
- relative viability ([1]; first compound 0.001 µM): 1.01
- relative viability ([1]; first compound 0.003162 µM): 1.38
- relative viability ([1]; first compound 0.01 µM): 1.32
- relative viability ([1]; first compound 0.03162 µM): 1.32
- relative viability ([1]; first compound 0.1 µM): 1.14
- relative viability ([4]; first compound 0.001 µM): 0.304
- relative viability ([4]; first compound 0.003162 µM): 0.355
- relative viability ([4]; first compound 0.01 µM): 0.301
- relative viability ([4]; first compound 0.03162 µM): 0.311
- relative viability ([4]; first compound 0.1 µM): 0.312
- relative viability ([2]; first compound 0.001 µM): 1.06
- relative viability ([2]; first compound 0.003162 µM): 0.964
- relative viability ([2]; first compound 0.01 µM): 1.15
- relative viability ([2]; first compound 0.03162 µM): 1.18
- relative viability ([2]; first compound 0.1 µM): 1.05

Cell Line: H3255
- relative viability ([3]; first compound 0.003162 µM): 0.561
- relative viability ([3]; first compound 0.01 µM): 0.653
- relative viability ([3]; first compound 0.03162 µM): 0.637
- relative viability ([3]; first compound 0.1 µM): 0.663
- relative viability ([1]; first compound 0.001 µM): 0.854
- relative viability ([1]; first compound 0.003162 µM): 0.826
- relative viability ([1]; first compound 0.01 µM): 1.01
- relative viability ([1]; first compound 0.03162 µM): 0.896
- relative viability ([1]; first compound 0.1 µM): 1.06
- relative viability ([4]; first compound 0.001 µM): 0.318
- relative viability ([4]; first compound 0.003162 µM): 0.358
- relative viability ([4]; first compound 0.01 µM): 0.329
- relative viability ([4]; first compound 0.03162 µM): 0.305
- relative viability ([4]; first compound 0.1 µM): 0.309
- relative viability ([2]; first compound 0.001 µM): 0.523
- relative viability ([2]; first compound 0.003162 µM): 0.442
- relative viability ([2]; first compound 0.01 µM): 0.531
- relative viability ([2]; first compound 0.03162 µM): 0.661
- relative viability ([2]; first compound 0.1 µM): 0.468

Cell Line: HARA
- relative viability ([3]; first compound 0.001 µM): 0.508
- relative viability ([3]; first compound 0.003162 µM): 0.715
- relative viability ([3]; first compound 0.01 µM): 0.626
- relative viability ([3]; first compound 0.03162 µM): 0.555
- relative viability ([3]; first compound 0.1 µM): 0.459
- relative viability ([1]; first compound 0.001 µM): 0.585
- relative viability ([1]; first compound 0.003162 µM): 0.906
- relative viability ([1]; first compound 0.01 µM): 0.953
- relative viability ([1]; first compound 0.03162 µM): 0.958
- relative viability ([1]; first compound 0.1 µM): 0.974
- relative viability ([4]; first compound 0.001 µM): 0.233
- relative viability ([4]; first compound 0.003162 µM): 0.23
- relative viability ([4]; first compound 0.01 µM): 0.261
- relative viability ([4]; first compound 0.03162 µM): 0.248
- relative viability ([4]; first compound 0.1 µM): 0.259
- relative viability ([2]; first compound 0.001 µM): 0.783
- relative viability ([2]; first compound 0.003162 µM): 1.14
- relative viability ([2]; first compound 0.01 µM): 1.12
- relative viability ([2]; first compound 0.03162 µM): 1.14
- relative viability ([2]; first compound 0.1 µM): 1.16

Cell Line: HCC-15
- relative viability ([3]; first compound 0.001 µM): 0.403
- relative viability ([3]; first compound 0.003162 µM): 0.387
- relative viability ([3]; first compound 0.01 µM): 0.409
- relative viability ([3]; first compound 0.03162 µM): 0.326
- relative viability ([3]; first compound 0.1 µM): 0.364
- relative viability ([1]; first compound 0.001 µM): 0.799
- relative viability ([1]; first compound 0.003162 µM): 0.823
- relative viability ([1]; first compound 0.01 µM): 0.874
- relative viability ([1]; first compound 0.03162 µM): 0.828
- relative viability ([1]; first compound 0.1 µM): 0.814
- relative viability ([4]; first compound 0.001 µM): 0.651
- relative viability ([4]; first compound 0.003162 µM): 0.751
- relative viability ([4]; first compound 0.01 µM): 0.72
- relative viability ([4]; first compound 0.03162 µM): 0.734
- relative viability ([4]; first compound 0.1 µM): 0.753
- relative viability ([2]; first compound 0.001 µM): 0.756
- relative viability ([2]; first compound 0.003162 µM): 0.652
- relative viability ([2]; first compound 0.01 µM): 0.665
- relative viability ([2]; first compound 0.03162 µM): 0.689
- relative viability ([2]; first compound 0.1 µM): 0.724

Cell Line: HCC-44
- relative viability ([3]; first compound 0.001 µM): 0.892
- relative viability ([3]; first compound 0.003162 µM): 1.05
- relative viability ([3]; first compound 0.01 µM): 1.03
- relative viability ([3]; first compound 0.03162 µM): 1.05
- relative viability ([3]; first compound 0.1 µM): 1.03
- relative viability ([1]; first compound 0.001 µM): 0.639
- relative viability ([1]; first compound 0.003162 µM): 0.647
- relative viability ([1]; first compound 0.01 µM): 0.695
- relative viability ([1]; first compound 0.03162 µM): 0.69
- relative viability ([1]; first compound 0.1 µM): 0.632
- relative viability ([4]; first compound 0.001 µM): 0.943
- relative viability ([4]; first compound 0.003162 µM): 1.04
- relative viability ([4]; first compound 0.01 µM): 0.997
- relative viability ([4]; first compound 0.03162 µM): 0.921
- relative viability ([4]; first compound 0.1 µM): 0.949
- relative viability ([2]; first compound 0.001 µM): 0.891
- relative viability ([2]; first compound 0.003162 µM): 0.952
- relative viability ([2]; first compound 0.01 µM): 1.04
- relative viability ([2]; first compound 0.03162 µM): 0.955
- relative viability ([2]; first compound 0.1 µM): 0.817

Cell Line: HCC-78
- relative viability ([3]; first compound 0.001 µM): 0.727
- relative viability ([3]; first compound 0.003162 µM): 0.662
- relative viability ([3]; first compound 0.01 µM): 0.848
- relative viability ([3]; first compound 0.03162 µM): 0.593
- relative viability ([3]; first compound 0.1 µM): 0.913
- relative viability ([1]; first compound 0.001 µM): 0.471
- relative viability ([1]; first compound 0.003162 µM): 0.4
- relative viability ([1]; first compound 0.01 µM): 0.486
- relative viability ([1]; first compound 0.03162 µM): 0.451
- relative viability ([1]; first compound 0.1 µM): 0.514
- relative viability ([4]; first compound 0.003162 µM): 0.476
- relative viability ([4]; first compound 0.01 µM): 0.494
- relative viability ([4]; first compound 0.03162 µM): 0.404
- relative viability ([4]; first compound 0.1 µM): 0.453
- relative viability ([2]; first compound 0.001 µM): 0.813
- relative viability ([2]; first compound 0.003162 µM): 0.868
- relative viability ([2]; first compound 0.01 µM): 0.766
- relative viability ([2]; first compound 0.03162 µM): 0.598
- relative viability ([2]; first compound 0.1 µM): 0.842
